Assay results reported in patent publication US20050202515A1, “Functional method for generating or screening for ligands which modulate steroid hormone receptors” (Wyeth, priority 2004, published 2005).
Ends that are not written are not given here.

Assays:
alkaline phosphatase = experiment: Quantitative PCR (TaqMan) analysis of alkaline phosphatase in ROS 17/2.8 cells; type: cell-based, rat; conditions: overexpression of MNAR, 100 nM, 48 h
Procedure: (§1) Quantitative PCR (TaqMan) analysis. […] Following transfection cells were cultured in media supplemented with 2% charcoal stripped FBS. 16 hours after the transfection cells were treated with 100 nM 1,25(OH)2 Vit.D3 for 24 or 48 hours. Cells were lysed and total RNA was isolated using RNeasy Kit (Quiagen). Quantitative PCR (TaqMan) was performed to determine osteocalcin levels in UMR-106 cells and alkaline phosphatase levels in ROS 17/2.8 cells.

Erk 1 and 2 = experiment: Western blotting analysis of Erk 1 and 2 phosphorylation in UMR-106 cells; type: cell-based, rat
Procedure: Western blotting analysis. […] After 48 h cells were treated with 10 nM 1,25(OH)2D3 for the indicated time. […] Cell debris were removed by centrifugation and equal amount of protein was run on SDS-PAGE. Separated proteins were transferred to nitrocellulose membrane and levels of MNAR, ERK, and p-ERK were determined by western blotting analysis.

osteocalcin = experiment: Quantitative PCR (TaqMan) analysis of osteocalcin in UMR-106 cells; type: cell-based, rat; conditions: 100 nM, 24 h
Procedure: as §1

PI3-K = PI3-K activity in p85 immunoprecipitates from MCF-7 cells; type: cell-based
Procedure: Transfections and cell lysates preparation. […] Cell debris was removed by centrifugation.
Immunoprecipitation and kinase assays.
For PI3-K reaction, p85 was immunoprecipitated from cell lysates as described above. Kinase activity in the immunoprecipitate was detected using PI3-Kinase ELISA kit from Echelon Biosciences according to the manufacture's instructions. Briefly, reaction was run in 50 μl volume by adding 5 μl of 10× reaction buffer and 10 μl of PI(4,5)P2 substrate solution (10 μM) to the p85 immunoprecipitate. After the PI3-K reactions was complete, reaction products are first mixed and incubated with a PI(3,4,5)P3 detecting antibody, then added to the PI(3,4,5)P3-coated microplate for competitive binding. A peroxidase-linked secondary detection reagent and colorirnetric detection was used to detect PI(3,4,5)P3 detecting antibody binding to the plate. The colorimetric signal was inversely proportional to the amount of PI(3,4,5)P3 produced by PI 3-K activity.

Akt [1] = experiment: Akt kinase activity in immunoprecipitate (GSK-3 substrate) from MCF-7 cells; type: cell-based; conditions: MNAR overexpression, estradiol for 20 min
Procedure: Transfections and cell lysates preparation. […] Cell debris was removed by centrifugation. […] Briefly, […] of GSK-3 fusion protein was added to the Akt-immunoprecipitate as a substrate. Kinase reaction was run in a reaction buffer supplied by the manufacturer. The level of p-GSK-3 produced in the kinase reaction was analyzed by western blotting analysis.

Akt [2] = experiment: Western blotting analysis of phosphorylated Akt in MCF-7 cells; type: cell-based
Procedure: Transfections and cell lysates preparation. […] Cell debris was removed by centrifugation. […] Equal amount of protein from cell lysates was run on SDS-PAGE. Separated proteins were transferred to nitrocellulose membrane and levels of Akt and p-Akt were determined by western blotting analysis. Akt antibody was from Cell Signaling (anti-Akt cat#9272, anti-p-Akt cat# 9271).

GST-VDR-LBD = target: T1, GST-VDR-LBD (Homo sapiens, UniProt P11473); experiment: ELISA-based VDR-MNAR interaction analysis; type: binding; conditions: GST-VDR-LBD preincubated with vehicle or 1 μM 1,25(OH)2D3; peptide 50 μM
T1 construct: made in house; host or cells: E. coli BL-21
T1 sequence (P11473 110-427): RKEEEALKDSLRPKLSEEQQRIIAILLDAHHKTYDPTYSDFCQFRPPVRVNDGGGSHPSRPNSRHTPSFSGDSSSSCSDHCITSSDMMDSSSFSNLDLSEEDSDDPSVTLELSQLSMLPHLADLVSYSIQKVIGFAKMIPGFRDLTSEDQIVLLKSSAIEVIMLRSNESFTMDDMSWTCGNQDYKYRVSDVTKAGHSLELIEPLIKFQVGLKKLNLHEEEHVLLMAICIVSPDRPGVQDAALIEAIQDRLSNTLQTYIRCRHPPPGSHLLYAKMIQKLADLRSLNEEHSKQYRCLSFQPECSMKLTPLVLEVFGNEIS
Procedure: ELISA-based VDR-MNAR interaction analysis. A rapid, nonisotopic ELISA-type method was used for characterization of VDR-MNAR interactions. Biotinylated peptides corresponding to different MNAR's LXXLL motifs (designated 1-9, sequentially from the most N-terminal motif) were synthesized and immobilized on a Reacti-Bind™ NeutrAvidin™-coated microplate (Pierce Biotechnology, Rockford, Ill.). The microplate was washed twice with binding buffer (50 mM Tris-HCL, pH 8.0, 150 mM NaCl, 1 mM DTT, 1 mM EDTA, 0.01% NP-40, and 0.01% BSA). Peptides were diluted in 100 μl binding buffer to a final concentration of 50 μM and incubated with the Reacti-Bind™ NeutrAvidin™ coated microplate for 1 hour at room temperature, washed 4 times with the binding buffer. GST-VDR-LBD, preincubated with vehicle or 1 μM 1,25(OH)2D3, was allowed to interact with the immobilized peptide corresponding to one of each of the MNAR LXXLL motifs for 2 hours at room temperature. The plate was washed 4 times with binding buffer and incubated with anti-GST antibodies fused to HRP (Sigma, St. Louis, Mo.) for 1 h in binding buffer and washed 4 more times. SuperSignal® ELISA Pico Chemiluminescent Substrate (Pierce Biotechnology, Rockford, Ill.) was used to detect antigen/antibody complex, signal was read using a Wallac Victor2 1420 Multilabel Counter (PerkinElmer Lifesciences, Boston, Mass.).

[3] = target: T2, GST-VDR ligand binding domain fusion protein (Homo sapiens, UniProt P11473); experiment: GST pull-down interaction analysis; conditions: 35S-radiolabeled full length MNAR; absence or presence of 100 nM 1,25(OH)2 Vit. D3
T2 construct: made in house; host or cells: E. coli BL-21 (GST-VDR-LBD); Promega TNT Quick Coupled Transcription/Translation System (MNAR)
T2 sequence (Q8IZL8 whole entry E896G/T1069P partner, one chain of several, the tested form may be a part): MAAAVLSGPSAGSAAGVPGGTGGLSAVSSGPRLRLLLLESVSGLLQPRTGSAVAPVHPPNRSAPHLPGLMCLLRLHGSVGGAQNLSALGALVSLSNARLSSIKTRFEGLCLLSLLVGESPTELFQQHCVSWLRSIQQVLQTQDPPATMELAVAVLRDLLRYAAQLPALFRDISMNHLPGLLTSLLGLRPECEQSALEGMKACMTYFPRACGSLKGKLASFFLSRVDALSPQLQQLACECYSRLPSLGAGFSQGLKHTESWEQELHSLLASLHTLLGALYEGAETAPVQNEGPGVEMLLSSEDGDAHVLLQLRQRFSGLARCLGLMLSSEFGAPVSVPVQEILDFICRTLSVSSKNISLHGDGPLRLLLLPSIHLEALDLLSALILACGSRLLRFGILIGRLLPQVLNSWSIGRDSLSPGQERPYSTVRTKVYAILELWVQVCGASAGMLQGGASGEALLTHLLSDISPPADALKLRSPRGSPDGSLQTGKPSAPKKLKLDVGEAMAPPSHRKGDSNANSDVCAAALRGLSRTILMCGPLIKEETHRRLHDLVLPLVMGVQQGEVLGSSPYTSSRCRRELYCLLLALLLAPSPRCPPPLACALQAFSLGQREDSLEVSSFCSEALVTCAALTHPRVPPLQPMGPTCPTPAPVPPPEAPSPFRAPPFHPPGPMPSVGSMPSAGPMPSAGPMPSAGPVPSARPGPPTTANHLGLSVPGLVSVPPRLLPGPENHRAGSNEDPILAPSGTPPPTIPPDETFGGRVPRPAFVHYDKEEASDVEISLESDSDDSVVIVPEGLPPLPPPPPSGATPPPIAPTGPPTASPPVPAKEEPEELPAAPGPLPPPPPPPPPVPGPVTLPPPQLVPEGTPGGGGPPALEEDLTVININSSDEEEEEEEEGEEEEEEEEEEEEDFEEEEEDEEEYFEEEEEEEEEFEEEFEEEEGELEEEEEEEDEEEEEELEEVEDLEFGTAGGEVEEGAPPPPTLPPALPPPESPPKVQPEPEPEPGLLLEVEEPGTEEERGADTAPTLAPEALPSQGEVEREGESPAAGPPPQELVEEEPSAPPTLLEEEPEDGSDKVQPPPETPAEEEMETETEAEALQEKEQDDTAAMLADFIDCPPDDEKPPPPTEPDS
Procedure: GST pull-down interaction analysis. A GST fusion to the ligand binding domain of VDR, amino acids 110-427, termed GST-VDR-LBD, was expressed in BL-21 cells and bound to glutathione-Sepharose 4B (Amersham Biosciences, Piscataway, NJ). Wild type MNAR was transcribed/translated and ^35S radiolabeled using Promega TNT Quick Coupled Transcription/Translation System (Madison, Wis.) and incubated for 1 hour at room temperature with GST-VDR-LBD fusion protein bound to glutathione-Sepharose 4B in the absence or presence of 100 nM 1,25(OH)2 Vit. D3 in binding buffer (50 mM Tris pH 8.0, 150 mM NaCl, 1 mM DTT, 1 mM PMSF, 1 mM EDTA, 0.05% NP-40, 1× Protease cocktail). Beads were then washed 4 times with the binding buffer and bound proteins were eluted by addition of SDS buffer and analyzed by SDS-PAGE and autoradiography.

## C=C1/C(=C\C=C2/CCC[C@]3(C)[C@@H]([C@H](C)CCCC(C)(C)O)CC[C@@H]23)C[C@@H](O)C[C@@H]1O [1,25(OH)2 Vit D3, 1,25 dihydroxy vitamin D3]
Alkaline phosphatase
  induction of AP expression level: strongly enhanced
Erk 1 and 2; MNAR overexpression, 10 nM
  Erk phosphorylation: dramatic increase in Erk phosphorylation
Erk 1 and 2; absence of MNAR (control vector), 10 nM for 10 or 20 min
  levels of phosphorylated Erk 1 and 2: augmentation of the levels of phosphorylated Erk 1 and 2
osteocalcin; MNAR overexpression
  1,25(OH)2 Vit D3-stimulated levels of osteocalcin: strong potentiation
osteocalcin; control plasmid
  level of osteocalcin expression: did not affect

## C[C@]12CC[C@@H]3c4ccc(O)cc4C[C@@H](CCCCCCCCC[S+]([O-])CCCC(F)(F)C(F)(F)F)[C@H]3[C@@H]1CC[C@@H]2O (stereo partly shown) [ICI 182 780]
PI3-K; MCF-7 cells treated with 10 nM estradiol for 20 min
  effect on estradiol activation of PI3-K activity: blocked

## C[C@]12CC[C@@H]3c4ccc(O)cc4CC[C@H]3[C@@H]1CC[C@@H]2O [estradiol, 17β-estradiol]
PI3-K; MCF-7 cells, MNAR overexpression, 10 nM estradiol for 20 min
  estrogen-dependant activation of PI3-K: increased
PI3-K; MCF-7 cells, 10 nM for 20 min
  PI3-kinase activity: stimulation of the PI3-kinase activity
Akt [1]
  estradiol induced Akt activation (GSK-3 phosphorylation): stimulates
Akt [2]; MCF-7 cells transfected with MNAR-expressing plasmid vs empty vector, 10 nM estradiol for 20 min
  phospho-Akt level: strong increase in phospho-Akt level
Akt [2]; MCF-7 cells, 10 nM for 20 min
  level of phospho-Akt: increased the level of phospho-Akt

## MNAR LXXLL motif #5: biotinylated peptide corresponding to the fifth LXXLL motif of MNAR, counted from the most N-terminal motif (LPGLLTSLL; also: biotinylated, site not given here)
GST-VDR-LBD
  VDR ligand binding domain interaction with immobilized MNAR LXXLL peptide: ligand-dependently interacted

## MNAR: modulator of nongenomic activity of estrogen receptor, scaffold protein, GenBank AF547989
[3]
  MNAR interaction with VDR-LBD: directly interacts with VDR-LBD in a ligand-dependent manner
